Reference: US8618299B2, “Azinone-substituted azapolycycle MCH-1 antagonists, methods of making, and use thereof” (Albany Molecular Research, Inc., priority 2009, dated 2013)
Where a name gives a salt, the structure may show the parent alone.

How the values were obtained:
[1] = molecular target: human MCH-1 receptor (Homo sapiens (Human), UniProt Q99705); experiment: Binding assay for human melanin-concentrating hormone (MCH1) receptor; conditions: membranes from CHO-K1 cells expressing human MCH1 receptor, 1.4 nM [3H]-labeled radioligand, 60 min at 25° C., pH 7.4, Ki from Cheng Prusoff equation
Chain of human MCH-1 receptor (Q99705 whole entry): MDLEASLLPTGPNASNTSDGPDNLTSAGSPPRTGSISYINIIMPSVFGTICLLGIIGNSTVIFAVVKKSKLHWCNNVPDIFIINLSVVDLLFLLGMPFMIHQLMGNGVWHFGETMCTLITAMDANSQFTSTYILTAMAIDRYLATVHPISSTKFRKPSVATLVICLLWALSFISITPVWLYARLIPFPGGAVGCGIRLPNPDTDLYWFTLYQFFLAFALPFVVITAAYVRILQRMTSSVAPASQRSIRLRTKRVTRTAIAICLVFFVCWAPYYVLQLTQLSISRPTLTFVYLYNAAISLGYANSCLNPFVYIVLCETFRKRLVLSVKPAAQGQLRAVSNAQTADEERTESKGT
Experimental: Binding Assay for Human Melanin-Concentrating Hormone (MCH1) Receptor
Evaluation of the affinity of compounds for the human MCH-1 receptor was accomplished using 4-(3,4,5-tritritiumbenzyloxy)-1-(1-(2-(pyrrolidin-1-yl)ethyl)-1H-indazol-5-yl)pyridin-2(1H)-one and membranes prepared from stable CHO-K1 cells expressing the human MCH1 receptor obtained from Euroscreen (Batch 1138). Cell membrane homogenates (8.92 μg protein) were incubated for 60 min at 25° C. with 1.4 nM of the [^3H]-labeled compound in the absence or presence of the test compound in 50 mM Tris-HCl buffer, pH 7.4. Nonspecific binding was determined in the presence of 50 μM 1-(5-(4-cyanophenyl)bicyclo[3.1.0]hexan-2-yl)-3-(4-fluoro-3-(trifluoromethyl)phenyl)-1-(3-(4-methylpiperazin-1-yl)propyl)urea. Following incubation, the samples were filtered rapidly under vacuum through Skatron 11731 filters, pre-soaked in 0.5% polyethylenimine, and washed with ice-cold 50 mM Tris-HCl buffer, pH 7.4, (wash setting 9,9,0) using a Skatron cell harvester. The filters were counted for radioactivity in a liquid scintillation counter (Tri-Carb 2100TR, Packard) using a scintillation cocktail (Ultima Gold MV, Perkin Elmer).
The results are expressed as a percent inhibition of the control radioligand specific binding. The IC50 value (concentration causing a half-maximal inhibition of control specific binding) and Hill coefficient (nH) were determined by non-linear regression analysis of the competition curve using Hill equation curve fitting. The inhibition constant (Ki) was calculated from the Cheng Prusoff equation: (Ki=IC50/(1+(L/KD)), where L=concentration of radioligand in the assay, and KD=affinity of the radioligand for the receptor.

Compound	melting point [°C]	Ki [1] [nM]	Ki ([1]; Hydrochloride) [nM]
Cl.O=c1cc(-c2ccc(C(F)(F)F)cc2)ccn1-c1ccc2c3c([nH]c2c1)CCN1CCCC31 (stereo not drawn) [Example 26, 1-(2,3,5,6,7,11c-Hexahydro-1H-indolizino[7,8-b]indol-9-yl)-4-(4-(trifluoromethyl)phenyl)pyridin-2(1H)-one Hydrochloride]	280 to 290	12	–
Cl.Cn1c2c(c3ccc(-n4ccc(OCc5ccc(C(F)(F)F)nc5)cc4=O)cc31)C1CCCN1CC2 (stereo not drawn) [Example 18, 1-(7-Methyl-2,3,5,6,7,11c-hexahydro-1H-indolizino[7,8-b]indol-9-yl)-4-((6-(trifluoromethyl)pyridin-3-yl)methoxy)pyridin-2(1H)-one Hydrochloride]	250 to 254	12	–
Cl.Cn1c2c(c3ccc(-n4ccc(OCc5ccc(F)cn5)cc4=O)nc31)CN1CCCC1C2 (stereo not drawn) [Example 51, 4-((5-Fluoropyridin-2-yl)methoxy)-1-(11-methyl-5,7,8,9,9a,10-hexahydro-11H-pyrido[3′,2′:4,5]pyrrolo[3,2-f]indolizin-2-yl)pyridin-2(1H)-one Hydrochloride]	220 to 230	37	–
Cl.Cn1c2c(c3ccc(-n4ccc(OCc5ccc(F)cc5F)cc4=O)nc31)C1CCCN1CC2 (stereo not drawn) [Example 46, 4-(2,4-Difluorobenzyloxy)-1-(7-methyl-2,3,5,6,7,11c-hexahydro-1H-pyrido[3′,2′:4,5]pyrrolo[2,3-g]indolizin-9-yl)pyridin-2(1H)-one Hydrochloride]	134 to 145	16	–
Cl.Cn1c2c(c3ccc(-n4ccc(OCc5ccccc5)cc4=O)cc31)CN1CCCC1C2 (stereo not drawn) [Example 11, 4-(Benzyloxy)-1-(10-methyl-2,3,5,10,11,11a-hexahydro-1H-indolizino[7,6-b]indol-8-yl)pyridin-2(1H)-one Hydrochloride]	255 to 258	8.1	–
Cl.Cn1c2c(c3ccc(-n4ccc(OCc5ccc(Cl)cc5F)cc4=O)nc31)C1CCCN1CC2 (stereo not drawn) [Example 47, 4-(4-Chloro-2-fluorobenzyloxy)-1-(7-methyl-2,3,5,6,7,11c-hexahydro-1H-pyrido[3′,2′:4,5]pyrrolo[2,3-g]indolizin-9-yl)pyridin-2(1H)-one Hydrochloride]	150 to 160	10	–
Cl.Cn1c2c(c3ccc(-n4ccc(OCc5ccccc5)cc4=O)cc31)CCN1CCCC21 (stereo not drawn) [Example 2, 4-(Benzyloxy)-1-(11-methyl-2,3,5,6,11,11b-hexahydro-1H-indolizino[8,7-b]indol-9-yl)pyridin-2(1H)-one Hydrochloride]	167 to 170	–	14.9
Cl.Cn1c2c(c3ccc(-n4ccc(OCc5ccccc5)cc4=O)cc31)CCN1CCCC21 (single isomer, unassigned; (+)) [Example 4, (+)4-(Benzyloxy)-1-(11-methyl-2,3,5,6,11,11b-hexahydro-1H-indolizino[8,7-b]indol-9-yl)pyridin-2(1H)-one Hydrochloride]	227 to 230	–	12.3
Cl.Cn1c2c(c3ccc(-n4ccc(OCc5ccc(F)cn5)cc4=O)cc31)CN1CCCCC1C2 (single isomer, unassigned; (-)) [Example 38, (−)-4-((5-Fluoropyridin-2-yl)methoxy)-1-(5-methyl-5,6,6a,7,8,9,10,12-octahydroindolo[2,3-b]quinolizin-3-yl)pyridin-2(1H)-one Hydrochloride]	270 to 280	–	19
Cl.Cn1c2c(c3ccc(-n4ccc(OCc5ncc(F)cc5F)cc4=O)nc31)CN1CCCC1C2 (stereo not drawn) [Example 56, 4-((3,5-Difluoropyridin-2-yl)methoxy)-1-(11-methyl-5,7,8,9,9a,10-hexahydro-11H-pyrido[3′,2′:4,5]pyrrolo[3,2-f]indolizin-2-yl)pyridin-2(1H)-one Hydrochloride]	220 to 230	121	–
Cl.Cn1c2c(c3ccc(-n4ccc(-c5ccc(C(F)(F)F)nc5)cc4=O)nc31)C1CCCN1CC2 (stereo not drawn) [Example 48, 1-(7-Methyl-2,3,5,6,7,11c-hexahydro-1H-pyrido[3′,2′:4,5]pyrrolo[2,3-g]indolizin-9-yl)-4-(6-(trifluoromethyl)pyridin-3-yl)pyridin-2(1H)-one Hydrochloride]	290 to 300	47	–
Cl.O=c1cc(-c2ccc(C(F)(F)F)nc2)ccn1-c1ccc2c3c([nH]c2c1)CC1CCCN1C3 (stereo not drawn) [Example 41, 1-(2,3,5,10,11,11a-Hexahydro-1H-indolizino[7,6-b]indol-8-yl)-4-(6-(trifluoromethyl)pyridin-3-yl)pyridin-2(1H)-one Hydrochloride]	275 to 285	14	–
Cl.Cn1c2c(c3ccc(-n4ccc(OCc5ccccc5)cc4=O)cc31)C1CCCCN1CC2 (stereo not drawn) [Example 22, 4-(Benzyloxy)-1-(8-methyl-1,2,3,4,6,7,8,12c-octahydroindolo[3,2-a]quinolizin-10-yl)pyridin-2(1H)-one Hydrochloride]	250 to 253	21	–
Cl.Cn1c2c(c3ccc(-n4ccc(-c5ccc(C(F)(F)F)cn5)cc4=O)cc31)CCN1CCCCC21 (stereo not drawn) [Example 6, 1-(12-Methyl-1,2,3,4,6,7,12,12b-octahydroindolo[2,3-a]quinolizin-10-yl)-4-(5-(trifluoromethyl)pyridin-2-yl)pyridin-2(1H)-one Hydrochloride]	280 to 284	481	–
Cl.Cn1c2c(c3ccc(-n4ccc(-c5ccc(C(F)(F)F)nc5)cc4=O)nc31)CN1CCCC1C2 (stereo not drawn) [Example 53, 1-(11-Methyl-5,7,8,9,9a,10-hexahydro-11H-pyrido[3′,2′:4,5]pyrrolo[3,2-f]indolizin-2-yl)-4-(6-(trifluoromethyl)pyridin-3-yl)pyridin-2(1H)-one Hydrochloride]	280 to 290	33	–
Cl.O=c1cc(-c2ccc(C(F)(F)F)cc2)ccn1-c1ccc2c3c([nH]c2c1)CC1CCCN1C3 (stereo not drawn) [Example 39, 1-(2,3,5,10,11,11a-Hexahydro-1H-indolizino[7,6-b]indol-8-yl)-4-(4-(trifluoromethyl)phenyl)pyridin-2(1H)-one Hydrochloride]	275 to 285	8.5	–
Cl.Cn1c2c(c3ccc(-n4ccc(OCc5ccc(Cl)cc5F)cc4=O)nc31)CN1CCCC1C2 (stereo not drawn) [Example 54, 4-(4-Chloro-2-fluorobenzyloxy)-1-(11-methyl-5,7,8,9,9a,10-hexahydro-11H-pyrido[3′,2′:4,5]pyrrolo[3,2-f]indolizin-2-yl)pyridin-2(1H)-one Hydrochloride]	210 to 220	26	–
Cl.Cn1c2c(c3ccc(-n4ccc(OCc5ccc(C(F)(F)F)nc5)cc4=O)cc31)CN1CCCCC1C2 (stereo not drawn) [Example 34, 1-(5-Methyl-5,6,6a,7,8,9,10,12-octahydroindolo[2,3-b]quinolizin-3-yl)-4-((6-(trifluoromethyl)pyridin-3-yl)methoxy)pyridin-2(1H)-one Hydrochloride]	260 to 262	24	–
Cl.Cn1c2c(c3ccc(-n4ccc(-c5ccc(C(F)(F)F)nc5)cc4=O)cc31)CN1CCCC1C2 (stereo not drawn) [Example 30, 1-(10-Methyl-2,3,5,10,11,11a-hexahydro-1H-indolizino[7,6-b]indol-8-yl)-4-(6-(trifluoromethyl)pyridin-3-yl)pyridin-2(1H)-one Hydrochloride]	290 to 293	8.3	–
Cc1ccc(COc2ccn(-c3ccc4c5c(n(C)c4c3)CC3CCCCN3C5)c(=O)c2)cn1 (stereo not drawn) (as salt: hydrochloride) [Example 33, 1-(5-Methyl-5,6,6a,7,8,9,10,12-octahydroindolo[2,3-b]quinolizin-3-yl)-4-((6-methylpyridin-3-yl)methoxy)pyridin-2(1H)-one Dihydrochloride]	270 to 272	–	–
Cn1c2c(c3ccc(-n4ccc(OCc5ccc(F)cn5)cc4=O)cc31)CCN1CCCC21 (stereo not drawn) (as salt: hydrochloride) [Example 43, 4-((5-Fluoropyridin-2-yl)methoxy)-1-(11-methyl-2,3,5,6,11,11b-hexahydro-1H-indolizino[8,7-b]indol-9-yl)pyridin-2(1H)-one Dihydrochloride]	290 to 293	–	–
Cn1c2c(c3ccc(-n4ccc(OCc5ccc(F)cn5)cc4=O)cc31)CN1CCCCC1C2 (stereo not drawn) (as salt: hydrochloride) [Example 37, 4-((5-Fluoropyridin-2-yl)methoxy)-1-(5-methyl-5,6,6a,7,8,9,10,12-octahydroindolo[2,3-b]quinolizin-3-yl)pyridin-2(1H)-one Dihydrochloride]	235 to 238	–	–
Cc1ccc(COc2ccn(-c3ccc4c5c(n(C)c4c3)CCN3CCCC53)c(=O)c2)cn1 (stereo not drawn) (as salt: hydrochloride) [Example 20, 1-(7-Methyl-2,3,5,6,7,11c-hexahydro-1H-indolizino[7,8-b]indol-9-yl)-4-((6-methylpyridin-3-yl)methoxy)pyridin-2(1H)-one Dihydrochloride]	280 to 282	–	–
